Where a name gives a salt, the structure may show the parent alone. Marks after values point to notes of the source that are not given here.
Assays:
NMDA receptor = test system: T1, NMDA receptor; test: NMDA receptor assay (fura-2 cytosolic calcium in cultured rat cerebellar granule cells); assay type: cell-based; conditions: Table I, read-out: fura2 data IC50
T1 construct: fura2 data IC50; rat cerebellar granule cells
Method: All culture media, antibiotics, and enzymes, with the exception of fetal calf serum (Hyclone Laboratories, Logan, Utah), were purchased from Sigma Chemical Co., St. Louis, Mo. Fura-2/AM was obtained from Molecular Probes, Eugene, Oreg., and was prepared freshly in dimethylsulfoxide (DMSO) before use. Ionomycin (Calbiochem) was stored as a stock solution in DMSO. Nifedipine (Sigma) and nimodipine (RBI) were dissolved in absolute ethanol. […] All other agents were dissolved in phosphate-buffered saline (PBS), and adjusted to pH 7.4
Preparation of Rat Cerebellar Granule Cell (RCGC) Cultures
Briefly, primary cultures of cerebellar granule neurons were obtained from 8-day-old rats and plated onto squares of Aclar plastic coated with poly-L-lysine. The plastic squares were placed in 12-well culture plates, and ˜7.5×10^5 cells were added to each well. Cultures were maintained in Eagles's medium containing 25 mM KCl, 10% fetal calf serum, 2 mM glutamine, 100 μg/ml gentamicin, 50 U/ml penicillin, and 50 μg/ml streptomycin at 37° C. in a humid atmosphere of 5%CO2 in air for 24 hr before the addition of cytosine arabinoside (10 μM, final). No changes of culture medium were made until the cells were used for fluorescence recording 6-8 days after plating.
Measurement of Cytosolic Calcium
(“Ca^2+-free” buffer contained no added CaCl2 and 30 μM EGTA). The cells were then rinsed with the same buffer, lacking fura-2/AM, and maintained at room temperature until used for measurement of fluorescence, the Aclar squares were transferred into quartz cuvettes containing 2 ml of the HEPES buffer. The cuvette was then placed into a thermostatted holder equipped with a magnetic stirrer in a custom-built spectrofluorimeter (Biomedical Instrumentation Group, University of Pennsylvania, Philadelphia, Pa.). The size of the plastic Aclar square was such as to fit snugly in the cuvette when placed at a diagonal and therefore suspend itself over the spin bar. Fluorescence was measured using excitation and emission wavelengths of 340 and 510 nm, respectively. The amplitude of the evoked increase in fluorescence and subsequent inhibition were recorded and the concentration of [Ca^2+]i was calculated using the formula:
[Ca^2+]=Kd (F-Fmin)/(Fmax-F) (Eq. 1)
F=fluorescence amplitude evoked at a particular time point or concentration of compound;
Fmin=minimum fluorescence determined after the addition of a 2.5 M TRIS/0.3 M EGTA solution;
Fmax=maximum fluorescence determined following the addition of 7 mM ionomycin in DMSO; and […]

[1] = biological target: T2, dopamine transporter site (Cavia porcellus, UniProt H0WCX4); test: Dopamine reuptake inhibition assay ([3H]WIN 35428 binding, guinea pig striatal membranes); conditions: Table I; read-out: DA Uptake Ki
T2 construct: tissue NovaScreen (performed the assay); host or cells: guinea pig striatal membranes
T2 sequence (H0WCX4 1-619): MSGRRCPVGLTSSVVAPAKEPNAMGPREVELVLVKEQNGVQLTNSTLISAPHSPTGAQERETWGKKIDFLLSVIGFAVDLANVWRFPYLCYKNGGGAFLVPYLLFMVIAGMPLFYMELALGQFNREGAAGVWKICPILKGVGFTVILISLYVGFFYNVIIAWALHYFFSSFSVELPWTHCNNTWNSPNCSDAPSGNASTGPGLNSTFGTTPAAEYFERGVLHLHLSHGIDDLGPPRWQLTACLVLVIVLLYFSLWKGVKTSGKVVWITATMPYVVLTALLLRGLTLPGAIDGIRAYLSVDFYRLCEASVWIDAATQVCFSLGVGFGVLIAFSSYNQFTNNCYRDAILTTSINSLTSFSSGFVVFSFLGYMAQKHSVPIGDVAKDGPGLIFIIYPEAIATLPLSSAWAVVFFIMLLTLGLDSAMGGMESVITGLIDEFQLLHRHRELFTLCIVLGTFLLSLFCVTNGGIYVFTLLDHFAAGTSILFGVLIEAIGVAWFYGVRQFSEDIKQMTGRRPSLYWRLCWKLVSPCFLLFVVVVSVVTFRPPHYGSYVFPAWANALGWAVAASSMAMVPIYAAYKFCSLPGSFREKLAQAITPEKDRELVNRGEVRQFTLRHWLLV
Method: Monoamine Transporter Minding Assays
Monoamine transporter binding assays (reuptake inhibition assays) were performed by NovaScreen using standard radioligand binding assays. The transporter binding assays are described briefly below:
Dopamine Reuptake Inhibition Assay:
Reactions were terminated by rapid vacuum filtration onto glass fiber filters. Bound radioactivity was determined using liquid scintillation spectrometry and experimental values were compared to control values to determine binding to the dopamine transporter site based on Madras, et al., Molec.

male C57BL/6 mice = test: Mouse tail-suspension test (TST) with Compound 60; assay type: in vivo; conditions: for Mean duration of immobility: Table VII, 5 mg/kg p.o. single dose, saline control 154.9
Method: For the mouse tail-suspension test with Compound 60, male pathogen-free C57BL/6 mice (Harlan Sprague-Dawley) weighing between 22-25 g were used. Animals were removed from the housing room to the testing area in their own cages and allowed to adapt to the new environment for at least 1 hour before testing. Mice were administered either drug (imipramine, 15 mg/kg i.p.; or Compound 60, various p.o. doses) or saline. Thirty minutes to 24 hours later, the mice were suspended on the edge of a shelf 80 cm above the floor in the testing room by adhesive tape placed approximately 1 cm from the tip of the tail. The duration of immobility was recorded during a test period of 5 minutes. Mice were considered immobile only when they hung passively and completely motionless. Results were expressed as the duration of immobility (sec).

## CNCCC(c1cccc(F)c1)c1cccc(F)c1 [Compound 60, N-Methyl-3.,3-bis(3-fluorophenyl)propylamine hydrochloride]
NMDA receptor
  IC50: 416 nM
[1]
  Ki: 914 nM
Male C57BL/6 mice; Table IX (experiment #2), 0.625 mg/kg single oral dose 60 minutes prior to testing, saline control 149.1
  Duration of Immobility: 143.3 s
Male C57BL/6 mice; Table IX (experiment #2), 1.25 mg/kg single oral dose 60 minutes prior to testing, saline control 149.1
  Duration of Immobility: 125.8 s
Male C57BL/6 mice; Table IX (experiment #2), 2.5 mg/kg single oral dose 60 minutes prior to testing, saline control 149.1
  Duration of Immobility: 69.6* sec
Male C57BL/6 mice; Table IX (experiment #2), 5 mg/kg single oral dose 60 minutes prior to testing, saline control 149.1
  Duration of Immobility: 69.5* sec
Male C57BL/6 mice; Table IX (experiment #2), 10 mg/kg single oral dose 60 minutes prior to testing, saline control 149.1
  Duration of Immobility: 15.6* sec
Male C57BL/6 mice; time post-dose 0.5
  Mean duration of immobility: 84.9* sec
Male C57BL/6 mice; time post-dose 1
  Mean duration of immobility: 74.7* sec
Male C57BL/6 mice; time post-dose 2
  Mean duration of immobility: 93.0* sec
Male C57BL/6 mice; time post-dose 4
  Mean duration of immobility: 109.7 s
Male C57BL/6 mice; time post-dose 6
  Mean duration of immobility: 125.5 s
Male C57BL/6 mice; time post-dose 24
  Mean duration of immobility: 177.7 s
Male C57BL/6 mice; Table VIII (experiment #1), 2.5 mg/kg single oral dose 60 minutes prior to testing, saline control 210.1
  Duration of Immobility: 130.7* sec
Male C57BL/6 mice; Table VIII (experiment #1), 5 mg/kg single oral dose 60 minutes prior to testing, saline control 210.1
  Duration of Immobility: 123.5* sec
Male C57BL/6 mice; Table VIII (experiment #1), 10 mg/kg single oral dose 60 minutes prior to testing, saline control 210.1
  Duration of Immobility: 47.8* sec
Male C57BL/6 mice; mouse TST, single 5-mg/kg oral dose
  time of peak effect (reduction in the duration of immobility) post-dosing: 60 min

Source: patent US20040039014A1, “Methods and compounds for treating depression and other disorders” (NPS Pharmaceuticals, Inc., priority 1998, published 2004)
